Data reported in publication PMC8959600 (eLife, 2022).

Assays:
[1] = test system: clinical isolates of Shigella; experiment: MIC by micro dilution, clinical Shigella isolates from Vietnam and Kenya; assay type: cell-based, Shigella spp.; conditions: all clinical isolates of Shigella (82 Vietnam, 53 Kenya)
Excerpt: Selected compounds, including Tebipenem, were profiled against a panel of […] clinical isolates of enteric pathogens comprised of Shigella (Vietnam and Kenya; n = 135), non-typhoidal Salmonella (Vietnam; n = 117), Campylobacter (Vietnam; n = 75), and various pathogenic E. coli species (Vietnam; n = 7) ([Butcher et al., 2014]). The antimicrobial susceptibility profile of these organisms is described in Supplementary file 1.
Compound screening and dose response assays have been described previously ([Van Voorhis et al., 2016]; [Wiegand et al., 2008]). Briefly, the selected bacteria were cultured on the Luria-Bertani agar overnight at 37 °C (Campylobacter isolates were grown in 2.5% Laked Horse Blood cation-adjusted Mueller Hinton medium (CAMHB, Sigma Aldrich) and incubated in microaerophilic conditions (10% CO2, 5% O2 and 85% N2) at 42 °C); colonies were added to sterile PBS to form 0.5 McFarland solutions. […] The activity of the chemical was recorded as being active (yes) or non-active (no) for each of the tested chemicals. A non-active result was recorded when there was no evidence of bacterial inhibition, and the culture area was indistinguishable from the negative control.
MICs were evaluated using the micro dilution assay in Müller Hinton broth using 1 mM chemical stock solutions, and a final concentration of 5 × 10^5 CFU/mL bacteria. […]

Salmonella (St14028) = experiment: Checkerboard synergy assay (FIC), laboratory isolate; assay type: cell-based, S. Typhimurium
Description: (§1) Before initiating drug combination assays, the MIC values for both compounds were determined against Shigella (Sf2457T), Salmonella (St14028), and E. coli (EcDH5a) isolates. […] 20 μM moxifloxacin was used as negative control (100% bacterial growth inhibition) in one column and DMSO as positive control (100% bacterial growth). A total of 25 µl of 1 × 10^6 CFU/mL bacterial culture was added to each well of a 384-well plate (μClear; Greiner Bio‐One). Plates were incubated overnight at 37 °C. Next, 10 µl of resazurin were added and plates were incubated at room temperature for 3 hr. Bacterial growth inhibition was measured by fluorescence in a Envision plate reader (PerkinElmer). All assays were performed in duplicate. Combination studies with clinical isolates were performed in 96-well plates (Greiner) adding 200 μl of 1 × 10^6 CFU/mL bacterial culture and following the same checkboard titration method as described above. The range of final working concentrations of each antimicrobial was adjusted based on the MIC of each selected organism.
(§2) MICs were determined for drug A and drug B alone and in combination. […] The sum of FIC was expressed using the following equation: FIC = (MIC of drug A in combination / MIC of drug A alone) + (MIC of drug B in combination / MIC of drug B alone) ([Le Minh et al., 2015]; [Petersen et al., 2006]; [Hall et al., 1983]; [European Committee for Antimicrobial Susceptibility Testing (EUCAST) of the European Society of Clinical Microbiology and Infectious Dieases (ESCMID), 2000]).

E. coli (EcDH5a) = experiment: as above; assay type: cell-based, Escherichia coli
Description: as §1, §2

[2] = Intestinal distribution by quantitative LC-MS in mice; assay type: in vivo; conditions: for peak drug concentration: mice, oral 50 mg/kg Tebipenem pivoxil
Description: (§3) One animal was euthanised at 0.25, 0.5, 1, and 4 hr respectively and 2.5–3 cm sections of the intestine (duodenum, jejunum, ileum, caecum, and colon) were collected and frozen at –80 °C. For quantitative LCMS analysis of intestine homogenate, samples were thawed at ambient temperature, mixed with water (1:1) and homogenised by turrax (10 sec). Subsequently, 20 µL of homogenate were mixed with 200 µl of ACN: MeOH (80:20) and filtered using 0.2 µm filter plate (Whatman). LCMS analysis was performed as described in previous section. For MALDI imaging, 50 mm of the central part of each intestinal section were cut and mounted in a sample disc on dry ice with a solution of 1% methylcellulose (Sigma Aldrich, UK). Next, tissue sections of 12 µm (sagital sections) were obtained using a cryostat (Leica CM3600; Leica Microsystems Inc, Wetzlar, Germany) at –20 °C and collected in conductive-coated slides for MALDI Imaging (Bruker Daltonic). After the ‘MALDI’ section was obtained a consecutive section for histology was taken. Prior to matrix coating, samples for MALDI were optical scanned in a PathScanner. The matrix deposition was conducted in a sprayer ImagePrep System (Bruker Daltonic) which uses vibrational vaporisation technology. As matrix solution α-CHCA (α-Cyano-4-hydroxycinnamic acid (Sigma Aldrich) dissolved in 70:30 methanol/water (v/v) containing 0.2% TFA at 7 mg/mL was used. MALDI MSI data were obtained using a Bruker UltrafleXtream MALDI TOF/TOF (Bruker Daltonic, Germany)).

[3] = Intestinal distribution by MALDI imaging in mice; assay type: in vivo; conditions: 60 min after oral pro-drug
Description: as §3
Both compounds were analysed in positive mode using a LIFT method. For Tebipenem, parent compound was 384.32 and the detection mass window between m/z 0–400. 298.164 were the most intensive fragment. […] We used a laser shut at 85% power with a 50 μm step size, 100 times at raster spot in random wak mode. FlexImaging 4.1(bruker Daltoninc, Germany) were used for the data visualisation. […]
MALDI Imaging is not a quantitative technique, therefore, the colour scale of images is relative to the maximum intensity (100 corresponds with the maximal signa in each slide). […]

[4] = in combination with LpxC inhibitor PF-5081090
[5] = in combination with azithromycin
[6] = in combination with ceftriaxone
[7] = in combination with ciprofloxacin
[8] = female, C57, mouse, duodenum and jejunum, po, 50 mg/kg, read-out: concentration in tissue

C[C@@H](O)[C@H]1C(=O)N2C(C(=O)O)=C(SC3CN(C4=NCCS4)C3)[C@H](C)[C@H]12 [Tebipenem]
MIC values, range [1]: 0.04 to 0.3 µM
interaction (FIC index) (Salmonella (St14028); [4]): partial synergy
reduction of the MIC against Tebipenem (Salmonella (St14028); [4]): > 10 fold
interaction (FIC index) (Salmonella (St14028); [5]): partial synergy
interaction (FIC index) (Salmonella (St14028); [6]): indifference or partial synergy
interaction (FIC index) (Salmonella (St14028); [7]): indifference or partial synergy
interaction (FIC index) (Salmonella (St14028); in combination with mecillinam): indifference or partial synergy
interaction (FIC index) (E. coli (EcDH5a); [4]): partial synergy
reduction of the MIC against Tebipenem (E. coli (EcDH5a); [4]): > 10 fold
interaction (FIC index) (E. coli (EcDH5a); [5]): indifference or antagonism
interaction (FIC index) (E. coli (EcDH5a); [6]): indifference or partial synergy
interaction (FIC index) (E. coli (EcDH5a); [7]): indifference or partial synergy
interaction (FIC index) (E. coli (EcDH5a); in combination with mecillinam): indifference or partial synergy
concentration at 15 min [2, 8]: > 300000 ng/g
concentration at 240 min [2, 8]: > 400 ng/g
peak drug concentration ([2]; caecum, after 60 min): 11 µg/g tissue
peak drug concentration ([2]; colon, after 60 min): 6 µg/g tissue
peak drug concentration ([2]; ileum, after 30 min): 15 µg/g tissue
MALDI detection in the intestinal lumen [3]: could be detected in the lumen and enterocytes throughout the gut
